Measured values published in PubChem BioAssay AID1963831 (Molecular Pharmacology Branch, DTP, NCI, 2024).

Tested on: 889142-216-R-J1-PDC complex spheroid viability
Assay: Anticancer human tumor 889142-216-R-J1-PDC patient-derived bladder carcinoma cell line growth inhibition [POLQ]
Conditions: for IC50: curve of first compound; for viability, T/C: stronger effect = lower value
Experimental: Multicellular complex tumor spheroid response to Polymerase (POL) inhibitors (novobiocin, ART-558, RP6685) in combination with a variety of drugs and investigational agents in selected tumor cell lines
The POL inhibitors (novobiocin, ART-558, and RP6685) were evaluated both individually and in combination with standard of care and investigational anticancer small molecules within a complex spheroid model of solid tumors. . Complex spheroids include a stromal component modeled by human endothelial cells (HUVEC) and fibroblasts modeled by human mesenchymal stem cells (MSCs). The concentration ranges selected for each drug and investigational agent were based upon clinically achievable concentrations if the clinical Cmax of the agent was known.
Compounds. The drugs and investigational agents: novobiocin (NSC847541), ART-558 (NSC835418), RP-6685 (NSC848927), peposertib (NSC802822), ceralasertib (NSC780249), elimusertib (NSC800525), camonsertib (NSC841442), AZD-1390 (NSC803789), olaparib (NSC753686), talazoparib (NSC767125), rucaparib (NSC756644), sotorasib (NSC818433), MRTX-1133 (NSC836407), SN-38 (NSC673596), topotecan (NSC609699), epotoside (NSC141540), doxorubicin (NSC123127), gemcitabine (NSC613327), 5-fluorouracil (NSC19893), paclitaxel (NSC125973), vemurafenib (NSC761431), MSA-2 (NSC828583), SN-011 (NSC837082), adavosertib (NSC754352), prexasertib (NSC758257), carboplatin (NSC241240) and oxaliplatin (NSC266046), were obtained from the National Cancer Institute (NCI) Developmental Therapeutics Program Chemical Repository (21). The FDA-approved anticancer drug set is available from the Developmental Therapeutics Program at https://dtp.cancer.gov/organization/dscb/obtaining/. […] The stock solutions were prepared in dimethyl sulfoxide (DMSO, Sigma-Aldrich, St. Louis, MO, cat. D2650), except for the platinum compounds which were prepared in saline (Quality Biological, Gaithersburg, MD, cat. 114-055-101), at 800-fold the tested concentration and stored at -70 degrees C prior to their use. All drugs and investigational agents were tested over a range starting from a high concentration at or near the clinical Cmax and decreasing in half-log increments. If the clinical Cmax for an agent had not been determined, the highest concentration tested was 10 microM, except for SN-38, which was tested at a high concentration of 1 microM.
Cell Culture. All cells were maintained in an incubator at 37 degrees C and 5% CO2 with 95% humidity. The PDC lines were cultured according to standard operating procedures established by the NCI PDMR (https://pdmr.cancer.gov). Table 3 of the manuscript, lists the cell lines along with the number of the three cell types plated to form the mct-spheroids and media for tumor cell growth. After thawing, all PDC lines, except 997537-175-T-J1-PDC and 415267-285-R-J2-PDC, were cultured in Matrigel-coated flasks prepared with a working solution of 1X Ham's F-12 nutrient mix, without supplementation (Thermo Fisher Scientific, cat. 11765054), 100 U/mL penicillin-streptomycin (Thermo Fisher Scientific, cat. 15140122), and 2.5% Matrigel (Corning Inc., Corning, NY, cat. 354248) for the first three passages. The two PDC lines 997537-175-T-J1-PDC and 415267-285-R-J2-PDC were cultured on uncoated flasks. The 857933-349-R-J2-PDC line was cultured in 6C/Colon 1B media containing advanced DMEM/F-12 (Thermo Fisher Scientific, cat. 12634028), 10 mM HEPES (Thermo Fisher Scientific, cat. 15630080), 1X GlutaMAX supplement (Thermo Fisher Scientific, cat. 35050061), 0.1 mg/mL primocin (InvivoGen, San Diego, CA, cat. ant-pm-2), 10% defined fetal bovine serum, heat inactivated (HyClone Laboratories Inc., Logan, UT, cat. SH30070.03HI), 50% L-WRN conditioned media (ATCC, cat. CRL-3276), 1.25 mM N-Acetyl-L-cysteine (Sigma-Aldrich, cat. A9165), 10 mM nicotinamide (Sigma-Aldrich, cat. N0636), 1X B-27 supplement (Thermo Fisher Scientific, cat. 17504044), 1X N-2 supplement (Thermo Fisher Scientific, cat. […]
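Note: spheroids exposed to compounds for seven days.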
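Throughout, for viability, T/C: 100% = DMSO vehicle control viability.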

## CC(=O)O[C@H]1C(=O)[C@@]2(C)[C@H]([C@H](OC(=O)c3ccccc3)[C@]3(O)C[C@H](OC(=O)[C@H](O)[C@@H](NC(=O)c4ccccc4)c4ccccc4)C(C)=C1C3(C)C)[C@]1(OC(C)=O)CO[C@@H]1C[C@@H]2O + COC1C(OC(N)=O)C(O)C(Oc2ccc3c(O)c(NC(=O)c4ccc(O)c(CC=C(C)C)c4)c(=O)oc3c2C)OC1(C)C
Second compound 0.0316 µM
  IC50: < 0.00949 µM
Second compound 0.1 µM
  IC50: < 0.00949 µM
Second compound 0.316 µM
  IC50: < 0.00949 µM
Second compound 1 µM
  IC50: < 0.00949 µM
Second compound 3.16 µM
  IC50: < 0.00949 µM
Second compound 10 µM
  IC50: < 0.00949 µM
Second compound 0.0316 µM, first compound 0.00949 µM
  viability, T/C: 42%
Second compound 0.0316 µM, first compound 0.03 µM
  viability, T/C: 37.3%
Second compound 0.0316 µM, first compound 0.0949 µM
  viability, T/C: 36.2%
Second compound 0.0316 µM, first compound 0.3 µM
  viability, T/C: 35%
Second compound 0.0316 µM, first compound 0.949 µM
  viability, T/C: 40.6%
Second compound 0.0316 µM, first compound 3 µM
  viability, T/C: 43%
Second compound 0.1 µM, first compound 0.00949 µM
  viability, T/C: 40%
Second compound 0.1 µM, first compound 0.03 µM
  viability, T/C: 29.9%
Second compound 0.1 µM, first compound 0.0949 µM
  viability, T/C: 40.6%
Second compound 0.1 µM, first compound 0.3 µM
  viability, T/C: 34.2%
Second compound 0.1 µM, first compound 0.949 µM
  viability, T/C: 37.4%
Second compound 0.1 µM, first compound 3 µM
  viability, T/C: 38.5%
Second compound 0.316 µM, first compound 0.00949 µM
  viability, T/C: 38.3%
Second compound 0.316 µM, first compound 0.03 µM
  viability, T/C: 37.2%
Second compound 0.316 µM, first compound 0.0949 µM
  viability, T/C: 41.3%
Second compound 0.316 µM, first compound 0.3 µM
  viability, T/C: 32.9%
Second compound 0.316 µM, first compound 0.949 µM
  viability, T/C: 34%
Second compound 0.316 µM, first compound 3 µM
  viability, T/C: 37.4%
Second compound 1 µM, first compound 0.00949 µM
  viability, T/C: 39.9%
Second compound 1 µM, first compound 0.03 µM
  viability, T/C: 40%
Second compound 1 µM, first compound 0.0949 µM
  viability, T/C: 43.9%
Second compound 1 µM, first compound 0.3 µM
  viability, T/C: 37.5%
Second compound 1 µM, first compound 0.949 µM
  viability, T/C: 35.3%
Second compound 1 µM, first compound 3 µM
  viability, T/C: 39.7%
Second compound 3.16 µM, first compound 0.00949 µM
  viability, T/C: 39.1%
Second compound 3.16 µM, first compound 0.03 µM
  viability, T/C: 38.1%
Second compound 3.16 µM, first compound 0.0949 µM
  viability, T/C: 39%
Second compound 3.16 µM, first compound 0.3 µM
  viability, T/C: 39.7%
Second compound 3.16 µM, first compound 0.949 µM
  viability, T/C: 41.2%
Second compound 3.16 µM, first compound 3 µM
  viability, T/C: 40.4%
Second compound 10 µM, first compound 0.00949 µM
  viability, T/C: 41.1%
Second compound 10 µM, first compound 0.03 µM
  viability, T/C: 38.1%
Second compound 10 µM, first compound 0.0949 µM
  viability, T/C: 40.4%
Second compound 10 µM, first compound 0.3 µM
  viability, T/C: 45.2%
Second compound 10 µM, first compound 0.949 µM
  viability, T/C: 38.5%
Second compound 10 µM, first compound 3 µM
  viability, T/C: 39.5%

## COc1cc(C2c3cc4c(cc3C(OC3OC5COC(C)OC5C(O)C3O)C3COC(=O)C23)OCO4)cc(OC)c1O (centres undefined) + COC1C(OC(N)=O)C(O)C(Oc2ccc3c(O)c(NC(=O)c4ccc(O)c(CC=C(C)C)c4)c(=O)oc3c2C)OC1(C)C
Second compound 0.0316 µM
  IC50: > 10 µM
Second compound 0.1 µM
  IC50: > 10 µM
Second compound 0.316 µM
  IC50: > 10 µM
Second compound 1 µM
  IC50: 10 µM
Second compound 3.16 µM
  IC50: > 10 µM
Second compound 10 µM
  IC50: > 10 µM
Second compound 0.0316 µM, first compound 0.0316 µM
  viability, T/C: 93.7%
Second compound 0.0316 µM, first compound 0.1 µM
  viability, T/C: 81.6%
Second compound 0.0316 µM, first compound 0.316 µM
  viability, T/C: 52%
Second compound 0.0316 µM, first compound 1 µM
  viability, T/C: 57.3%
Second compound 0.0316 µM, first compound 3.16 µM
  viability, T/C: 74%
Second compound 0.0316 µM, first compound 10 µM
  viability, T/C: 52.9%
Second compound 0.1 µM, first compound 0.0316 µM
  viability, T/C: 87.1%
Second compound 0.1 µM, first compound 0.1 µM
  viability, T/C: 87.2%
Second compound 0.1 µM, first compound 0.316 µM
  viability, T/C: 63%
Second compound 0.1 µM, first compound 1 µM
  viability, T/C: 56.3%
Second compound 0.1 µM, first compound 3.16 µM
  viability, T/C: 70.4%
Second compound 0.1 µM, first compound 10 µM
  viability, T/C: 50.4%
Second compound 0.316 µM, first compound 0.0316 µM
  viability, T/C: 110%
Second compound 0.316 µM, first compound 0.1 µM
  viability, T/C: 88.8%
Second compound 0.316 µM, first compound 0.316 µM
  viability, T/C: 66.1%
Second compound 0.316 µM, first compound 1 µM
  viability, T/C: 56.2%
Second compound 0.316 µM, first compound 3.16 µM
  viability, T/C: 60.3%
Second compound 0.316 µM, first compound 10 µM
  viability, T/C: 52.9%
Second compound 1 µM, first compound 0.0316 µM
  viability, T/C: 91.5%
Second compound 1 µM, first compound 0.1 µM
  viability, T/C: 99.9%
Second compound 1 µM, first compound 0.316 µM
  viability, T/C: 53.4%
Second compound 1 µM, first compound 1 µM
  viability, T/C: 61%
Second compound 1 µM, first compound 3.16 µM
  viability, T/C: 60.4%
Second compound 1 µM, first compound 10 µM
  viability, T/C: 56%
Second compound 3.16 µM, first compound 0.0316 µM
  viability, T/C: 94.9%
Second compound 3.16 µM, first compound 0.1 µM
  viability, T/C: 96.9%
Second compound 3.16 µM, first compound 0.316 µM
  viability, T/C: 75.3%
Second compound 3.16 µM, first compound 1 µM
  viability, T/C: 51%
Second compound 3.16 µM, first compound 3.16 µM
  viability, T/C: 58.1%
Second compound 3.16 µM, first compound 10 µM
  viability, T/C: 52.9%
Second compound 10 µM, first compound 0.0316 µM
  viability, T/C: 108%
Second compound 10 µM, first compound 0.1 µM
  viability, T/C: 90.2%
Second compound 10 µM, first compound 0.316 µM
  viability, T/C: 56.7%
Second compound 10 µM, first compound 1 µM
  viability, T/C: 48.9%
Second compound 10 µM, first compound 3.16 µM
  viability, T/C: 64.5%
Second compound 10 µM, first compound 10 µM
  viability, T/C: 55.3%
